Drawing on patent US8846929B2, “Substituted-quinoxaline-type piperidine compounds and the uses thereof” (priority 2007, dated 2014), this text covers EC50 for 38 molecules.

Each structure is given as a SMILES string.

Chain of human opioid receptor-like (ORL-1) (P41146 whole entry): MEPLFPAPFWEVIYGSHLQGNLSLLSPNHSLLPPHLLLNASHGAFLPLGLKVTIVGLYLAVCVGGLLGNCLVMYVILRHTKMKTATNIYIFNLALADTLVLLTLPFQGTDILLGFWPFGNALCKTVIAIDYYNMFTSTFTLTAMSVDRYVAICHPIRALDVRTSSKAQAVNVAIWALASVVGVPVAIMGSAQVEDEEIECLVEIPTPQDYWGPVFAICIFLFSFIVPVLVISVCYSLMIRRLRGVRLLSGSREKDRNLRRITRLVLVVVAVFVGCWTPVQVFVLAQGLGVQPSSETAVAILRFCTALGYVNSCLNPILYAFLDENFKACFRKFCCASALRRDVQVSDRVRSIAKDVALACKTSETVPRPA

The experiment addresses human opioid receptor-like (ORL-1) (Homo sapiens (Human), UniProt P41146). Kind of experiment: In vitro ORL-1 receptor [35S]GTPγS functional assay. The format is biochemical. For orientation: Binding of GTPγS marks nucleotide exchange on a G protein.
As to `N=C(N)NCCNc1nc2ccccc2n(C2CCN(C3CCCCCCC3)CC2)c1=O` [compound 26], the EC50 (commonly the midpoint of the concentration-response curve) came to 109 ± 5.9 nM.
The value for `COC(=O)[C@@H]1CCCN1c1nc2ccccc2n(C2CCN(C3CCCCCCC3)CC2)c1=O` [compound 27] was 969 ± 89 nM.
`CONC(=O)c1nc2ccccc2n([C@H]2C[C@H]3CC[C@@H](C2)N3C2CCCCCCC2)c1=O` [compound 121] came in with an EC50 of 265 ± 27 nM.
On to `NC(=O)[C@@H]1CCCN1c1nc2ccccc2n(C2CCN(C3CCCCCCC3)CC2)c1=O` [compound 42], for which the response was half-maximal at 543 ± 27 nM (EC50).
The value for `O=C(O)CN(CCNC(=O)c1nc2ccccc2n([C@H]2C[C@H]3CC[C@@H](C2)N3C23CC4CC(CC(C4)C2)C3)c1=O)CC(=O)O` [compound 325] was 109 ± 14 nM; that for `O=C(O)c1ccc(CNC(=O)c2nc3ccccc3n([C@H]3C[C@H]4CC[C@@H](C3)N4C3CCCCCCC3)c2=O)cc1` [compound 314] was 453 ± 66 nM; that for `CN(C)c1nc2ccccc2n(C2CCN(C3CCCCCCC3)CC2)c1=O` [compound 2, 1-(1-cyclooctylpiperidin-4-yl)-3-(dimethylamino)quinoxalin-2(1H)-one] was 580 ± 92 nM.
The value for `NC(=O)[C@H](CO)Nc1nc2ccccc2n(C2CCN(C3CCCCCCC3)CC2)c1=O` [compound 33] was 211 ± 21 nM; that for `O=C(O)CC(NC(=O)c1nc2ccccc2n([C@H]2C[C@H]3CC[C@@H](C2)N3C2CCCCCCC2)c1=O)C(=O)O` (stereo partly drawn) [compound 310, 2-(4-((endo)-8-cyclooctyl-8-azabicyclo[3.2.1]octan-3-yl)-3-oxo-3,4-dihydroquinoxaline-2-carboxamido)succinic acid] was 419 ± 62 nM.
The value for `COC(=O)c1ccc2c(c1)CN(c1nc3ccccc3n(C3CCN(C4CCCCCCC4)CC3)c1=O)CC2` [compound 44] was 392 ± 6.6 nM.
Molecule `CCOC(=O)CNc1nc2ccccc2n(C2CCN(C3CCCCCCC3)CC2)c1=O` [compound 57] returned an EC50 of 486 ± 34 nM.
The value for `O=c1c(NC[C@H](O)CO)nc2ccccc2n1C1CCN(C2CCCCCCC2)CC1` [compound 55] was 421 ± 50 nM; that for `CC1(N2[C@@H]3CCC[C@H]2C[C@@H](n2c(=O)c(C(=O)O)nc4ccccc42)C3)CCCCCCC1` [compound 335] was 174 ± 10 nM.
The value for `O=C(c1nc2ccccc2n(C2CCN(C3CCCCCCC3)CC2)c1=O)N1CC2CNCC2C1` (centres unmarked) [compound 73, 1-(1-cyclooctylpiperidin-4-yl)-3-(octahydropyrrolo[3,4-c]pyrrole-2-carbonyl)quinoxalin-2(1H)-one] was 377 ± 115 nM.
The value for `O=C1CCN(c2nc3ccccc3n(C3CCN(C4CCCCCCC4)CC3)c2=O)N1` [compound 119, 1-(1-cyclooctylpiperidin-4-yl)-3-(3-oxopyrazolidin-1-yl)quinoxalin-2(1H)-one] was 3660 ± 171 nM; that for `COC(=O)[C@@H]1C[C@@H](O)CN1c1nc2ccccc2n(C2CCN(C3CCCCCCC3)CC2)c1=O` [compound 28] was 1880 ± 285 nM.
Turning to `CONC(=O)c1nc2ccccc2n(C2CCN(C3CCCCCCC3)CC2)c1=O` [compound 83], the EC50 came out at 558 ± 77 nM.
The value for `CN(CC(=O)O)C(=O)c1nc2ccccc2n([C@H]2C[C@H]3CC[C@@H](C2)N3C2CCCCCCC2)c1=O` [compound 307, 2-(4-((endo)-8-cyclooctyl-8-azabicyclo[3.2.1]octan-3-yl)-N-methyl-3-oxo-3,4-dihydroquinoxaline-2-carboxamido)acetic acid] was 400 ± 72 nM.
The value for `CC(=O)Nc1nc2ccccc2n(C2CCN(C3CCCCCCC3)CC2)c1=O` [compound 17, N-(4-(1-cyclooctylpiperidin-4-yl)-3-oxo-3,4-dihydroquinoxalin-2-yl)acetamide] was 7870 ± 2230 nM.
The value for `CC(C)CC(C)N1[C@@H]2CCC[C@H]1C[C@@H](n1c(=O)c(C(=O)O)nc3ccccc31)C2` (some centres unmarked) [compound 304] was 150 ± 6 nM; that for `O=C(O)c1nc2ccccc2n([C@H]2C[C@H]3CCC[C@@H](C2)N3CCC2CCCCC2)c1=O` [compound 372] was 214 ± 57 nM.
`CC(C)(C)OC(=O)NC1CCN(c2nc3ccccc3n(C3CCN(C4CCCCCCC4)CC3)c2=O)CC1` [compound 21] had an EC50 of 1470 ± 50 nM.
With `NCC(O)CNc1nc2ccccc2n(C2CCN(C3CCCCCCC3)CC2)c1=O` (centres unmarked) [compound 58], the EC50 is 151 ± 7.9 nM.
The value for `O=C(O)c1nc2ccc(F)cc2n([C@H]2C[C@H]3CC[C@@H](C2)N3C2CCCCCCC2)c1=O` [compound 133] was 473 ± 27 nM; that for `O=C(Nc1ccc(=O)[nH]c1)c1nc2ccccc2n(C2CCN(C3CCCCCCC3)CC2)c1=O` [compound 82] was 181 ± 9.8 nM.
On to `NC(=O)CNc1nc2ccccc2n(C2CCN(C34CC5CC(CC(C5)C3)C4)CC2)c1=O` [compound 64], for which the EC50 is 457 ± 90 nM.
The value for `O=C(NCC(O)CO)c1nc2ccccc2n(C2CCN(C3CCCCCCC3)CC2)c1=O` (centres unmarked) [compound 79] was 703 ± 39 nM; that for `C=CCNc1nc2ccccc2n(C2CCN(C3CCCCCCC3)CC2)c1=O` [compound 24, 3-(allylamino)-1-(1-cyclooctylpiperidin-4-yl)quinoxalin-2(1H)-one] was 611 ± 71 nM; that for `O=C(O)c1ccc(CNC(=O)c2nc3ccccc3n([C@H]3C[C@H]4CC[C@@H](C3)N4C3CCCCCCC3)c2=O)nc1` [compound 318, 6-((4-((endo)-8-cyclooctyl-8-azabicyclo[3.2.1]octan-3-yl)-3-oxo-3 ,4-dihydroquinoxaline-2-carboxamido)methyl)nicotinic acid] was 236 ± 13 nM.
Molecule `O=c1c(NCC(O)CO)nc2ccccc2n1C1CCN(C2CCCCCCC2)CC1` (centres unmarked) [compound 25, 1-(1-cyclooctylpiperidin-4-yl)-3-(2,3-dihydroxypropylamino)quinoxalin-2(1H)-one] had an EC50 of 781 ± 26 nM.
As for `O=C(O)c1nc2ccccc2n([C@H]2C[C@H]3CC[C@@H](C2)N3C23CC4CC(CC2C4)C3)c1=O` [compound 320], the EC50 is 104 ± 7.8 nM.
The value for `CSCCC(NC(=O)c1nc2ccccc2n([C@H]2C[C@H]3CC[C@@H](C2)N3C2CCCCCCC2)c1=O)C(=O)O` (stereo partly drawn) [compound 309, 2-(4-((endo)-8-cyclooctyl-8-azabicyclo[3.2.1]octan-3-yl)-3-oxo-3,4-dihydroquinoxaline-2-carboxamido)-4-(methylthio)butanoic acid] was 659 ± 155 nM; that for `O=C(O)C1CCCN1C(=O)c1nc2ccccc2n([C@H]2C[C@H]3CC[C@@H](C2)N3C2CCCCCCC2)c1=O` (stereo partly drawn) [compound 306, 1-(4-((endo)-8-cyclooctyl-8-azabicyclo[3.2.1]octan-3-yl)-3-oxo-3,4-dihydroquinoxaline-2-carbonyl)pyrrolidine-2-carboxylic acid] was 548 ± 57 nM.
The value for `CN(CC(O)CO)c1nc2ccccc2n(C2CCN(C3CCCCCCC3)CC2)c1=O` (centres unmarked) [compound 65] was 348 ± 22 nM.
In turn, `CC(=O)N1CC2CN(c3nc4ccccc4n(C4CCN(C5CCCCCCC5)CC4)c3=O)CC2C1` (centres unmarked) [compound 13, 3-(5-acetylhexahydropyrrolo[3,4-c]pyrrol-2(1H)-yl)-1-(1-cyclooctylpiperidin-4-yl)quinoxalin-2(1H)-one] showed an EC50 of 1690 ± 166 nM.
The value for `O=c1c(N2CC[C@@H](O)C2)nc2ccccc2n1C1CCN(C2CCCCCCC2)CC1` [compound 92] was 510 ± 100 nM; that for `O=C(NOCc1ccccc1)c1nc2ccccc2n(C2CCN(C3CCCCCCC3)CC2)c1=O` [compound 84] was 182 ± 22 nM.
The value for `CC(=O)N1CCC(Nc2nc3ccccc3n(C3CCN(C4CCCCCCC4)CC3)c2=O)CC1` [compound 49] was 808 ± 110 nM.
